# Reference: ChEMBL document CHEMBL1201862, “PubChem BioAssay data set” (2004)
#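 Briefly, cells in 96-well plates were exposed to five compound concentrations for 48 h, and endpoints were estimated by linear interpolation. At the GI50, growth is halved.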 Active and inactive are the calls of the source. Cut-off read from the data, not from the text of the source: active = GI50 up to about 1.1 µM and inactive = higher.
# Tests used:
# Assay in all cases: NCI tumour cell line growth inhibition, 48 h
# ACHN = tested on: ACHN
# EKVX = tested on: EKVX
# HCT-15 = tested on: HCT-15
# HOP-62 = tested on: HOP-62
# HT-29 = tested on: HT-29
# Hs-578T = tested on: Hs-578T
# K562 = tested on: K562
# LOX IMVI = tested on: LOX IMVI
# MDA-MB-435 = tested on: MDA-MB-435
# MDA-N = tested on: MDA-N
# NCI-H226 = tested on: NCI-H226
# OVCAR-3 = tested on: OVCAR-3
# OVCAR-4 = tested on: OVCAR-4
# PC-3 = tested on: PC-3
# SK-OV-3 = tested on: SK-OV-3
# SNB-75 = tested on: SNB-75
# TK-10 = tested on: TK-10
# U-251 = tested on: U-251
# HCC 2998 = tested on: HCC 2998
# HOP-92 = tested on: HOP-92
Compound,GI50 (ACHN),GI50 (EKVX),GI50 (HCT-15) [µM],GI50 (HOP-62),GI50 (HT-29),GI50 (Hs-578T),GI50 (K562),GI50 (LOX IMVI),GI50 (MDA-MB-435),GI50 (MDA-N),GI50 (NCI-H226),GI50 (OVCAR-3),GI50 (OVCAR-4),GI50 (PC-3),GI50 (SK-OV-3),GI50 (SNB-75),GI50 (TK-10),GI50 (U-251),GI50 (HCC 2998),GI50 (HOP-92)
CC(C)CC1[C@@H](OCc2ccccc2)COS(=O)N1Cc1ccccc1 (stereo partly specified),35 µM (inactive),38.8 µM (inactive),30.8,56.6 µM (inactive),15.6 µM (inactive),23.9 µM (inactive),39.4 µM (inactive),24.8 µM (inactive),31.5 µM (inactive),52.8 µM (inactive),47.1 µM (inactive),54.2 µM (inactive),44.2 µM (inactive),30.1 µM (inactive),> 100 µM (inactive),21.5 µM (inactive),40 µM (inactive),29.9 µM (inactive),,
CCOP(=O)(/C=C/n1ccc(N)nc1=O)OCC,> 100 µM (inactive),> 100 µM (inactive),> 100,> 100 µM (inactive),> 100 µM (inactive),> 100 µM (inactive),> 100 µM (inactive),> 100 µM (inactive),> 100 µM (inactive),> 100 µM (inactive),97.9 µM (inactive),> 100 µM (inactive),> 100 µM (inactive),> 100 µM (inactive),> 100 µM (inactive),> 100 µM (inactive),> 100 µM (inactive),> 100 µM (inactive),,
CC1CN=C(N(C)C(=O)Nc2ccc(Cl)c(Cl)c2)S1 (stereo unspecified),11 µM (inactive),32.4 µM (inactive),21.3,21.8 µM (inactive),33 µM (inactive),22.8 µM (inactive),23.4 µM (inactive),17.5 µM (inactive),,31 µM (inactive),,20.5 µM (inactive),36.6 µM (inactive),27.4 µM (inactive),> 100 µM (inactive),19.1 µM (inactive),26.8 µM (inactive),31.6 µM (inactive),38.6 µM (inactive),4.76 µM (inactive)
CCOP(=O)(OCC)/C(C#N)=C\c1ccc(OC(C)=O)cc1,> 100 µM (inactive),> 100 µM (inactive),> 100,> 100 µM (inactive),> 100 µM (inactive),,> 100 µM (inactive),> 100 µM (inactive),,,> 100 µM (inactive),> 100 µM (inactive),> 100 µM (inactive),,> 100 µM (inactive),> 78.5 µM (inactive),> 100 µM (inactive),> 100 µM (inactive),> 100 µM (inactive),> 100 µM (inactive)
COc1ccc(C2Oc3c(cccc3OC)C=C2[N+](=O)[O-])cc1OC (stereo unspecified),10.4 µM (inactive),45.2 µM (inactive),3.46,21.2 µM (inactive),18.5 µM (inactive),6.25 µM (inactive),2.58 µM (inactive),2.49 µM (inactive),2.16 µM (inactive),5.19 µM (inactive),18.6 µM (inactive),11.9 µM (inactive),18.7 µM (inactive),4.08 µM (inactive),4.9 µM (inactive),7.21 µM (inactive),23.8 µM (inactive),3.97 µM (inactive),,
COc1ccc(NCc2cccc3c(=O)c4ccc(Cl)cc4oc23)cc1,> 100 µM (inactive),> 100 µM (inactive),> 100,> 100 µM (inactive),,,> 100 µM (inactive),> 100 µM (inactive),> 100 µM (inactive),> 100 µM (inactive),> 100 µM (inactive),> 100 µM (inactive),> 100 µM (inactive),> 100 µM (inactive),> 100 µM (inactive),> 100 µM (inactive),> 100 µM (inactive),> 100 µM (inactive),> 100 µM (inactive),2.5 µM (inactive)
